{
  "source": "patent EP4162932A1",
  "about": "“ANTIVIRAL HOP CONSTITUENTS” (HHV Hallertauer Hopfenveredelungsgesellschaft mbH, priority 2021, dated 2023)",
  "key": {"icSARS-CoV-2-mNG": {"test_system": "icSARS-CoV-2-mNG", "test": "microbe, parasite or virus in culture", "assay_type": "cell-based, SARS-CoV-2", "conditions": "Severe acute respiratory syndrome coronavirus 2, Caco-2, 48 h; read-out: half maximal inhibitory concentration (IC50) on virus replication"}, "SARS-CoV-2 PLpro": {"target": "SARS-CoV-2 PLpro (Severe acute respiratory syndrome coronavirus 2, UniProt P0DTD1)", "test": "PLpro kinetic inhibition assay, cleavage of AMC peptide mimicking the C-terminus of human ISG15", "assay_type": "biochemical"}, "in vitro": {"test": "in vitro", "conditions": "human, Caco-2"}},
  "data": [
    {"smiles": "CC(C)=CCc1c(O)cc2c(c1O)C(=O)C[C@@H](c1ccc(O)cc1)O2", "note": "[6-PN, 6-prenylnaringenin]", "values": [
      {"measurement": "IC50", "setting": "icSARS-CoV-2-mNG", "result": 7.26, "unit": "µM"},
      {"measurement": "IC50", "setting": "SARS-CoV-2 PLpro", "result": "131 ± 10", "unit": "µM"},
      {"measurement": "CC50", "setting": "in vitro", "result": 22.6, "unit": "µM"}
    ]},
    {"smiles": "CC(C)=CCc1c(O)cc(O)c2c1O[C@H](c1ccc(O)cc1)CC2=O", "note": "[8-PN, 8-prenylnaringenin]", "values": [
      {"measurement": "IC50", "setting": "icSARS-CoV-2-mNG", "result": 23, "unit": "µM"},
      {"measurement": "IC50", "setting": "SARS-CoV-2 PLpro", "result": "119 ± 13", "unit": "µM"},
      {"measurement": "CC50", "setting": "in vitro", "result": 54.9, "unit": "µM"}
    ]},
    {"smiles": "COc1cc(O)c(CC=C(C)C)c2c1C(=O)CC(c1ccc(O)cc1)O2", "note": "(centres unmarked) [IX, isoxanthohumol]", "values": [
      {"measurement": "IC50", "setting": "icSARS-CoV-2-mNG", "result": 20.1, "unit": "µM"},
      {"measurement": "IC50", "setting": "SARS-CoV-2 PLpro", "result": "59 ± 15", "unit": "µM"},
      {"measurement": "CC50", "setting": "in vitro", "result": 19.5, "unit": "µM"}
    ]},
    {"smiles": "COc1cc(O)c(CC=C(C)C)c(O)c1C(=O)/C=C/c1ccc(O)cc1", "note": "[XN, xanthohumol]", "values": [
      {"measurement": "IC50", "setting": "icSARS-CoV-2-mNG", "result": 3.28, "unit": "µM"},
      {"measurement": "CC50", "setting": "in vitro", "result": 12.3, "unit": "µM"}
    ]}
  ]
}
